{"source": "patent US20240150715A1", "about": "(Sciperio, Inc, priority 2022, published 2024)", "format_in_all_cases": "cell-based", "key": {"[1]": {"test_system": "RBCs differentiated from HSCs", "assay": "Enucleation, maturation and morphology of manufactured RBCs (DRAQ5-, CD235a+; leukofiltration; Leishman stain)", "details": "for concentration of enucleated cells after leukofiltration: FIG. 6B", "source_text": "FIG. 6 illustrates ferric citrate-treated RBCs enucleate at rates similar to transferrin-treated RBCs."}, "[2]": {"test_system": "differentiating hematopoietic stem cells (HSCs)", "assay": "High-density differentiation of HSCs into RBCs: culture density / proliferation", "details": "ferric citrate compared with transferrin, FIG. 5A", "source_text": "(B) Secretion of cellular waste compounds ammonia and lactate is equivalent between ferric citrate and transferrin, indicating similar metabolic rates. (C) Rates of lytic cell death are similar between cultures treated with ferric citrate and transferrin, as is indicated by the release of lactate dehydrogenase (LDH). (D) Amino acid consumption is similar between the two conditions, as is represented by the consumption of alanine and other amino acids.\nThe medium formulation has specifically been designed for the efficient, high density, in vitro manufacture of RBCs from HSCs in bioreactors. It is formulated to optimally supply certain growth factors at elevated concentrations for rapid HSC expansion and mediated erythropoiesis using a bioreactor (FIG. 1). The formulation has been determined experimentally using the average depletion rates of various factors by differentiating HSCs in high-density culture (FIG. 2), and can be employed in the production of manufactured RBCs both in static culture (e.g. culture flasks) and in continually agitated suspension culture (e.g. bioreactors).\nThe present inventors have experimentally determined that a concentration range between 1 μg/mL and 500 μg/mL is effective in driving directed HSC differentiation through the stages of erythropoiesis in a manner that is equivalent to that of holo-transferrin (FIG. 4)."}, "[3]": {"test_system": "differentiating HSCs in high density culture", "assay": "Analysis of culture medium: metabolic waste, LDH release, amino acid consumption", "details": "ferric citrate compared with transferrin"}}, "data": [{"molecule": "O=C([O-])CC(O)(CC(=O)[O-])C(=O)[O-].[Fe+3]", "note": "[ferric citrate, iron (III) citrate]", "values": [{"measurement": "cell morphology", "setting": "[1]; Leishman stain, ferric citrate compared with transferrin, FIG. 6C", "value": "morphologically similar"}, {"measurement": "concentration of enucleated cells after leukofiltration", "setting": "[1]", "value": 74.8, "unit": "%"}, {"measurement": "difference in overall enucleation", "setting": "[1]; ferric citrate versus transferrin, after differentiation in optimized medium, FIG. 6A", "value": "~4", "unit": "%"}, {"measurement": "effect on HSC density and cumulative population doubling", "setting": "[2]", "value": "comparable"}, {"measurement": "secretion of cellular waste compounds ammonia and lactate", "setting": "[3]; FIG. 5B", "value": "equivalent"}, {"measurement": "amino acid consumption (alanine and other amino acids)", "setting": "[3]; FIG. 5D", "value": "similar"}]}, {"molecule": "transferrin: iron-loaded protein holo-transferrin, traditional iron source in HSC culture media", "values": [{"measurement": "concentration of enucleated cells after leukofiltration", "setting": "[1]", "value": 79, "unit": "%"}]}]}
